By viability is commonly meant the share of living cells, or the viability signal relative to a control. For orientation: Papp A→B means how fast a substance crosses the layer from the apical side. Broadly, the Papp B→A is how fast a substance crosses the layer from the basolateral side. Broadly, the AUC(0-inf) is the area under the concentration-time curve extrapolated to infinity. High values mean high exposure, low ones low exposure. One may read the Cmax as the maximum level reached in the sampled fluid or tissue. For orientation: Tmax means the time at which the peak concentration occurs. In general, half-life refers to the time in which the quantity being followed falls by half. Lower therefore signals rapid decline. One may read the solubility as the concentration that dissolves in the medium under given conditions.

We go through one molecule from publication PMC8592623, “Enhanced oral bioavailability of koumine by complexation with hydroxypropyl-β-cyclodextrin: preparation, optimization, ex vivo and in vivo characterization” (Drug Delivery, 2021).

Values after ≈ are worked out from the molar mass of the structure shown. A value given as a limit tells only on which side of the number the result lay.

The conditions of data set [1]: previously investigated in our laboratory; cited from earlier work.
The conditions of data set [2]: previously investigated in our laboratory; cited from earlier work. This is another data set of the same source.
Data set [3] can be described thus: Cell viability study (CCK-8 assay). Format: cell-based. The note with it: human, Caco-2, 5–100 μg/mL, read-out: viability of Caco-2 cells. On the procedure: The cytotoxicity of KME and KME/HP-β-CD was evaluated in Caco-2 cells using the cell counting kit-8 (CCK-8) assay. Caco-2 cells were cultured in DMEM containing 20% FBS and incubated at 37 °C with 5% CO2. Caco-2 cells (1 × 10^4 cell/well) were seeded in 96-well plates and incubated for 24 h. Then, 100 μL of fresh medium containing KME or KME/HP-β-CD (5–100 µg/mL) was added. After 24 h, the culture medium was changed with CCK-8 solution and the samples were incubated for another 2 h. The optical density (OD) was read at 490 nm (BioTek Instruments, Winooski).

Data set [4] in a line: Caco-2 permeability study. Format: in vitro ADME. The note with it: human, 50 μg/mL KME equivalent. On the procedure:
Caco-2 cells were seeded at a density of 5 × 10^5 cells/well on top of 12-well Transwell® polycarbonate filters, and cultured in a 5% CO2 incubator at 37 °C for 21 days. The medium was changed every 2 days in the first week, and then every day for the next two weeks. At the end of 21 days, a Millicell-ERS epithelial voltmeter (Merck, USA) was used to analyze the transepithelial electrical resistance (TEER) value of Caco-2 cells. Only monolayers with TEER values higher than 600 Ω·cm^2 can be used in subsequent transport experiments (Chen et al. [2018]).
To investigate the permeability of KME and KME/HP-β-CD inclusion complexes in Caco-2 cells, the apical to basal (A-B) and basal to apical (B-A) transport of KME was measured. After preincubation for 30 min with blank HBSS, 0.5 mL of HBSS medium containing KME or KME/HP-β-CD (equivalent KME concentration of 50 μg/mL) was added to the apical side in the A-B direction experiments, and 1.5 mL of fresh HBSS was added to the basolateral side of the inserts as the acceptor phase. In contrast, for the B-A direction experiments, 1.5 mL of HBSS medium containing KME or KME/HP-β-CD (equivalent KME concentration of 50 μg/mL) was added to the basolateral side, and 0.5 mL of fresh HBSS was added to the apical side of the inserts as the acceptor phase. The plates were incubated in a shaker at 37 °C. 100 μL of the sample were taken from the acceptor side at predetermined time intervals (30, 60, 90, and 120 min) and replaced by the same volume of fresh HBSS to maintain a constant volume. Finally, the obtained samples were analyzed by HPLC. The Papp values (cm/s) were determined using the following equation (McCartney et al. [2019]; Patel & Sawant [2019]): Papp=(dQ/dt)/(A×C0),where dQ/dt is the steady−state flux, A is the surface area of the monolayer (1.12 cm^2), and C0 is the donor concentration (50 μg/mL). TEER (Ω·cm^2)=(TEER (Ω) –TEER blank (Ω)) × A(cm^2)
Here, TEER (Ω), Caco-2 monolayers; TEER blank (Ω), the insert without cells; A (cm^2), 1.12 cm^2.
(In general: Passage across Caco-2 layers is used to estimate intestinal permeability.)

Data set [5] relates to rat intestines (everted gut sac: duodenum, jejunum, ileum, colon). As to the kind of experiment: Ex vivo everted gut sac experiments. The format is in vitro ADME. The procedure:
The protocol of the animal study was approved by the Institutional Animal Care and Use Committee of Fujian Medical University (permit number: SYXK (Min) 2018-0001), China. Male SD rats weighing 220–250 g were fasted overnight before the experiment and with free access to water. The everted gut sac method was carried out as in previously published reports with minor modifications (Tambe et al. [2019]). Rats were anesthetized and sacrificed, and the intestinal segments of interest were identified and dissected (duodenum, starting 1 cm from the stomach; jejunum, 10–18 cm from the stomach; ileum, starting 8 cm above the cecum; colon, 5 cm below the cecum) (Rong et al. [2013]).
Each obtained intestinal segment was immediately washed with ice-cold Krebs-Ringer (K-R) solution, and then turned out with a glass rod, and one end was ligated with a thread. After inserting the glass tube, the other open end of the everted sacs was also tightened. Then blank K-R solution (2.5 mL) was added to the everted gut sacs. The everted segments were preincubated in 50 mL of K-R solution at 37 °C for 5 min. […] After the experiment, the length of each intestinal segment was accurately measured, and the concentration of KME was measured by HPLC. The apparent permeability coefficient (Papp) values of KME were calculated by the following equation (Tambe et al. [2019]): […]

Data set [6] can be described thus: In vitro drug release, dialysis bag diffusion method. The format is physicochemical. The note with it: pH 6.8 phosphate buffer, 37 °C. On the procedure: A dialysis bag diffusion method was used to evaluate in vitro drug release profiles of both KME and KME/HP-β-CD (Zhao et al. [2021]). 2 mg of KME was dispersed in water, and then transferred to a dialysis bag and placed in a beaker containing 40 mL of pH 6.8 phosphate buffer. The study was carried out at 37 ± 0.5 °C and a magnetic stirring speed of 100 rpm. Aliquots of approximately 4 mL were taken out at predetermined time intervals (10 min, 15 min, 30 min, 1 h, 2 h, 3 h, and 6 h) and replaced by the same volume of fresh buffer to maintain a constant volume of dissolution media during sampling. The samples were filtered and analyzed by HPLC.

On the set-up of data set [7]: method as in Wang et al. [2019]. The note with it: from parameters of published reports; ref Wang et al. [2019]; cited from earlier work.
For data set [8] the following is noted: introduction, no reference given; cited from earlier work.
Data set [9] in a line: In vivo pharmacokinetics study after oral administration. The note with it: oral gavage 12 mg/kg, male SD rats, n = 6; for AUC0–12 (AUC0-t): 12 mg/kg. On the procedure: The in vivo pharmacokinetic study was approved by the Institutional Animal Ethical Committee, Fujian Medical University, China. Male SD rats (200 ± 20 g) have fasted for 12 h with free access to water before oral administration. The rats were divided randomly into two groups (n = 6) and received KME or KME/HP-β-CD by oral gavage at a drug dose of 12 mg/kg. The KME powder and KME/HP-β-CD were dispersed in deionized water containing 0.1% sodium carboxymethylcellulose (CMC-Na). Blood samples were collected at predetermined intervals (0.05, 0.1, 0.16, 0.5, 1, 3, 6, 9, and 12 h) from the retroorbital venous sinus, and placed in heparinized anticoagulant tubes. After centrifugation at 4,000 rpm for 10 min at 4 °C, the plasma was separated and stored at −80 °C until UPLC-MS/MS analysis.
Plasma samples were prepared by the protein precipitation method (Chen et al. [2013]). Briefly, an aliquot of 50 μL plasma sample and 200 μL of acetonitrile containing 10 ng/mL gelsemine (internal standard, IS) were added to a centrifuge tube. The mixture was vortexed for 5 min and centrifuged at 18,000 rpm for 10 min at 4 °C. Then the supernatant was transferred and injected into the UPLC-MS/MS system for analysis. Chromatographic separation was performed using a UPLC instrument (Agilent 1290, Agilent Technologies, USA), equipped with a mass spectrometer (QTRAP® 5500, AB SCIEX, USA). The mass spectrometer detector was performed with multiple reactions monitoring scan mode at m/z 307.2 → 180.1 for KME and m/z 323.1 → 236.1 for IS. More detailed information about UPLC-MS/MS is provided in the supplementary material. The main pharmacokinetic parameters such as T1/2, Cmax, Tmax, and area under the curve (AUC), were determined using the non-compartmental model with DAS 3.2.1 software. The relative bioavailability F was calculated by the following equation: F(%) =(AUC0–t (inclusion complexes)/AUC0–t(KME)) × 100%

Data set [10] can be described thus: Saturation solubility in distilled water. Format: physicochemical. The note with it: 37 °C, saturated solution. On the procedure: Excess KME and KME/HP-β-CD were added to distilled water to obtain a supersaturated solution (Arya & Raghav [2021]). The samples were shaken at 37 °C for 24 h and 100 rpm. After centrifugation, the supernatants were filtered through a 0.45 μm membrane and the solubility was determined (n = 3) with the validated HPLC method.

Data set [11] is described as follows: Phase solubility study (Higuchi and Connors). The format is physicochemical. On the procedure: The phase solubility studies were carried out according to the method of Higuchi and Connors (Jansook et al. [2018]; Higuchi & Connors [1965]). Briefly, an excess of KME was added to 200 μL aqueous solutions of different HP-β-CD concentrations (1, 2, 4, 6, 8, and 10 mM). All samples were shaken at 25 °C and 100 rpm for 72 h until reaching equilibrium. Subsequently, the samples were withdrawn and filtered through a 0.45 µm membrane to remove undissolved KME. The concentration of KME in the HP-β-CD solutions was determined by an HPLC method, and the analyses were performed in triplicate (n = 3). The apparent stability constants (Ks) were calculated by the following equation (Nair et al. [2014]; Pinto et al. [2020]): Ks = slope/So (1-slope), where So represents the intrinsic solubility of the drug, and the slope is the slope of the linear KME-CD phase solubility diagram.

With `C=C[C@@]12CN(C)[C@H]3C[C@]14C(=Nc1ccccc14)[C@H]1C[C@@H]2[C@@H]3CO1` [KME, Koumine], the “absolute bioavailability (Fabs) in rats” value in [1] is reported as 14.30%. The “absolute bioavailability (Fabs) in beagle dogs” value in [2] is recorded as 5.67%. For the same molecule, the viability at 24 h in [3] is above 90%. Also, the efflux ratio at 120 min, 50 µg/mL in data set [4] (read-out: efflux ratio (B-A permeability/A-B permeability)) is 1.74. Besides, in [4] (apical to basal, 120 min), the Papp A→B at 120 min, 50 µg/mL came out at 7.78 ± 2.01 ×10⁻⁶ cm/s. Moreover, the Papp B→A at 120 min, 50 µg/mL in data set [4] (basal to apical, 120 min) is 13.5 ± 1.72 ×10⁻⁶ cm/s. Besides, the “order of absorption flux in the intestinal segments” value in data set [5] (100 μg/mL, up to 120 min) is reported as “ileum > duodenum > jejunum > colon”. For the same molecule, the “KME absorption in colon segment with verapamil versus without” value in [5] (colon, verapamil 100 μg/mL (inhibitor of P-gp)) is given as “no significant difference”. Further, in [6] (1 h), the “release rate in the first 1 h” value stood at 40%. Moreover, the “release rate within 6 h” value in [6] (6 h) was 70%. Besides, the “absolute bioavailability (Fabs)” value in data set [7] is given as 1%. Also, in data set [8], the solubility in water is on record as below 1 mg/mL. Also, the “AUC0–12 (AUC0-t)” value in [9] (listed as KME suspension) amounted to 72.50 ± 15.25 ng·h/mL. In addition, the “AUC0–12 (AUC0-t)” value in data set [9] (listed as Raw KME) is 26.48 ± 17.80 ng·h/mL. In addition, in data set [9] (rat, plasma), the AUC(0-inf) is 30.2 ± 16.6 ng·h/mL, the Cmax is 22.8 ± 15.6 ng/mL, the Tmax was 19.8 ± 12 min and the half-life was 51.6 ± 7.2 min. The molecule further returned a solubility at 24 h in data set [10] of 700 µg/mL (≈ 2280 µM). Further, the solubility at 72 h in data set [11] (10 mM HP-β-CD aqueous solution, 25 °C, 72 h, read-out: solubility of KME at 10 mM HP-β-CD) amounted to 1810 µg/mL (≈ 5910 µM). For the same molecule, the “increase of KME solubility at 10 mM HP-β-CD” value in [11] (10 mM HP-β-CD versus water) was 2.59 fold. Besides, in data set [11] (water, 25 °C, 72 h, no HP-β-CD, read-out: equilibrium solubility of KME in water), the solubility thermodynamic at 72 h amounted to 700 ± 20 µg/mL (≈ 2280 µM).
